Reference: ChEMBL document CHEMBL3886489, “Fused pyrazole derivatives as novel ERK inhibitors” (2016)
pKd: −log10 of the molar value.

Target: Mitogen-activated protein kinase 1 (Mus musculus, UniProt P63085)
Experiment: TdF (Temperature Dependence Fluorescence) Assay: The SAR (Structure Activity Relationship) for ERK ligands covered by this invention was interrogated using the TdF (Temperature Dependence Fluorescence) assay or best known as thermal shift assay. (M. W. Pantoliano, et al., "High-density miniaturized thermal shift assays as a general strategy for drug discovery," J. Biomol. Screen 6 (2001) 429-440) The TdF assay was mainly conducted in the 96-well based CHROMO-4 real time fluorescence plate reader (BioRad). The Sypro Orange (Sigma-Aldrich), environmentally sensitive fluorescence dye, was used to monitor the protein folding-unfolding transition. Protein-ligand binding was gauged by the change (or shift) in the unfolding transition temperature (ΔTm) acquired at protein alone with respect to protein in the presence of ligand of interest.Compound of interest was first prepared in DMSO stock (typical concentration: 10 mM). […] Final percentage of DMSO resided in the sample was 2%. The sample plate was heated from 30° C. to 90° C. with thermal ramping rate of 1° C./min.

Chain of Mitogen-activated protein kinase 1 (P63085 whole entry): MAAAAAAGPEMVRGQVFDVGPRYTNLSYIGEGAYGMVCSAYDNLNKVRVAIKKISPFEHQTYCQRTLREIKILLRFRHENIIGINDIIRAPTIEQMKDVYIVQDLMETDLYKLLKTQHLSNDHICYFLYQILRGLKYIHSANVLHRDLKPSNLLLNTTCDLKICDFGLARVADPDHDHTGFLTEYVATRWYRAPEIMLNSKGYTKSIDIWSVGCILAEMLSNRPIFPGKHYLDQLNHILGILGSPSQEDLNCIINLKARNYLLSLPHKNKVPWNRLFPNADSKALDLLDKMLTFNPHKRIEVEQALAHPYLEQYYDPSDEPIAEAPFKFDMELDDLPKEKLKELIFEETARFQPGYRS

pKd: 8.22
SMILES: O=C(N[C@H]1CNC[C@@H]1c1ccccc1)N1CCc2[nH]nc(-c3ccncc3)c2C1 (racemic)
